How the values were obtained:
[1] = tested on: β-glucuronidases from Escherichia coli, Streptococcus agalactiae, and Clostridium perfringens; format: biochemical; settings: wild-type enzymes; fluorescence SDS-PAGE
β-glucuronidase (uidA) [2] = target: β-glucuronidase (uidA) (Escherichia coli, UniProt P05804); format: cell-based, E. coli
β-glucuronidase (uidA) [3] = format: cell-based, E. coli; settings: ΔuidA strain lacking β-glucuronidase
WT E. coli = assay: Whole-cell probe labeling coupled to flow cytometry/FACS, E. coli only; format: cell-based; settings: 50 μM
[4] = tested on: Lactobacillus plantarum, which lacks a β-glucuronidase; assay: Whole-cell probe labeling coupled to flow cytometry/FACS, L. plantarum only; format: cell-based; settings: 50 μM
[5] = tested on: mix of WT E. coli and L. plantarum; assay: Whole-cell probe labeling coupled to flow cytometry/FACS, mix of E. coli and L. plantarum; format: cell-based, Lactobacillus plantarum
[6] = tested on: glucuronidase activity in the gut microbiome; format: in vivo, mouse; settings: in 4 of 5 sets of littermates; vancomycin in water vs water
Protocol: Microbial cells from the mouse gut were suspended in PBS with a protease inhibitor (COMPLETE® EDTA-free Protease Inhibitor, ROCHE®) and lysed via bead beating (BULLET BLENDER®). β-glucuronidase assays were conducted as previously described with modifications. Briefly, 4-methylumbelliferyl-β-D-glucuronide (4-MUG; 1 mM) was added to 50 μL lysate (0.9 μg total protein) for a final concentration of 500 μM. At specific time points (0-240 minutes), 10 μL aliquots of each reaction were added to 90 μL of 0.1 M […] (pH=10) and stored in the dark. Fluorescence was measured using a plate reader (MOLECULAR BIOSCIENCES®), and the amount of hydrolyzed substrate was calculated relative to a standard curve. The rate (mM/s) was determined via linear regression (GRAPHPAD® PRISM®), and activity was calculated as rate per μg protein. Values from three independent replicates were averaged, and activity was compared across biological replicates (n=5) using a ratio paired t-test.
Pairs of littermates were exposed to water with or without vancomycin, an antibiotic known to target Firmicutes in the gut microbiota (FIG. 12). As Firmicutes made up most the probe-positive taxa in the non-treated mice (FIG. 13), vancomycin treatment may shift the GlcA-ABP+ population composition. […] Accordingly, the intensity of GlcA-ABP+ labeling decreased as well (FIG. 14B).

gut microbiota = format: in vivo, mouse
[7] = vancomycin-treated vs untreated littermates

β-glucuronidase (uidA) (Escherichia coli, UniProt P05804), sequence (P05804 whole entry): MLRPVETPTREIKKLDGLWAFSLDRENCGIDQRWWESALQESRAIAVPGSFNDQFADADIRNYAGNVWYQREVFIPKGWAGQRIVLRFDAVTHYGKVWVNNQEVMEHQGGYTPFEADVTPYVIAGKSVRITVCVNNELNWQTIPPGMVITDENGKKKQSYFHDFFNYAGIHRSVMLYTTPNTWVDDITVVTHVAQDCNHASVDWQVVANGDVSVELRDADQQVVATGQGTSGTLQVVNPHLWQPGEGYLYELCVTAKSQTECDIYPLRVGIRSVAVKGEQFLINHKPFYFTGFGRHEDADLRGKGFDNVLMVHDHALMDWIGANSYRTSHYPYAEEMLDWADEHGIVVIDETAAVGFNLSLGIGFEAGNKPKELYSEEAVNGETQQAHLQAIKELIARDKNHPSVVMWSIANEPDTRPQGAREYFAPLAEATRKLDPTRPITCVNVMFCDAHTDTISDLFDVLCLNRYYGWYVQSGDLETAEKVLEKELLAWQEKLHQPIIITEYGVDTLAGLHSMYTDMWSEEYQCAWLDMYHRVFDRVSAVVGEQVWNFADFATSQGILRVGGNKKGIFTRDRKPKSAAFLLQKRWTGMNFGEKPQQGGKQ

Compound: C#CCCCC(=O)Nc1ccc(OC2OC(C(=O)O)C(O)C(O)C2O)c(C(F)F)c1 (stereo not drawn) [GlcA-ABP, 6-(2-(difluoromethyl)-4-(hex-5-ynamido)phenoxy)-3,4,5-trihydroxytetrahydro-2H-pyran-2-carboxylic acid]
- GlcA-ABP labeling intensity of purified β-glucuronidases [1]: corresponded with the catalytic efficiency of these enzymes
- labeling in ΔuidA complemented with uidA (β-glucuronidase (uidA) [2]; SDS-PAGE and flow cytometry): restoration of labeling
- labeling of β-glucuronidase in wild type (WT) E. coli (β-glucuronidase (uidA) [2]; WT E. coli, SDS-PAGE): Dose-dependent labeling
- labeling in ΔuidA E. coli (β-glucuronidase (uidA) [3]): no labeling
- cell labeling, flow cytometry (WT E. coli): labeling was observed
- cell labeling, flow cytometry [4]: none
- cell labeling, flow cytometry ([5]; mixture of E. coli and L. plantarum, 50 μM): an intermediate amount

Compound: C#CCCCCNC(=O)CI [IAA, iodoacetamide alkyne, reference compound]
- cell labeling by positive control probe, flow cytometry ([5]; E. coli only, L. plantarum only, or mix, 10 μM): all cells were labeled

Compound: CN[C@H](CC(C)C)C(=O)N[C@H]1C(=O)N[C@@H](CC(N)=O)C(=O)N[C@H]2C(=O)N[C@H]3C(=O)N[C@H](C(=O)N[C@H](C(=O)O)c4cc(O)cc(O)c4-c4cc3ccc4O)[C@H](O)c3ccc(c(Cl)c3)Oc3cc2cc(c3O[C@@H]2O[C@H](CO)[C@@H](O)[C@H](O)[C@H]2O[C@H]2C[C@](C)(N)[C@H](O)[C@H](C)O2)Oc2ccc(cc2Cl)[C@H]1O [Vancomycin, vancomycin]
- glucuronidase activity in gut microbiome after treatment [6]: reduced, but did not eliminate
- relative abundance of Firmicutes (gut microbiota; [7]): dramatically decreased
- relative abundance of Proteobacteria, Verrucomicrobia, and Bacteroidetes (gut microbiota; [7]): corresponding increase
- intensity of GlcA-ABP+ labeling after treatment (gut microbiota; vancomycin-treated vs untreated mice): decreased

— patent US20190086410A1, “FUNCTION-BASED PROBES FOR ENVIRONMENTAL MICROBIOME ANALYSIS AND METHODS OF MAKING AND USING THE SAME” (Battelle Memorial Institute, priority 2017, published 2019)
